Values joined by “and” are separate entries in the source; they are usually repeats but may differ in a detail not shown here. Identical values can stand only once.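 96-well plates; 48 h exposure; 5 concentrations. Endpoints by linear interpolation between flanking doses. Not reached: highest tested concentration assigned. GI50: concentration for 50% inhibition of growth. TGI: concentration producing complete growth inhibition.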 Bounds are passed on as bounds.

Results on twelve compounds are retold here after PubChem BioAssay (NCI).

Some test systems named below: HCC-2998 colon; MDA-MB-231 breast; NCI-H23 lung; NCI-H460 lung; OVCAR-8 ovarian; SK-MEL-5 melanoma; SK-OV-3 ovarian; SNB-19 CNS; SW-620 colon; MOLT-4 leukemia.
What all share (assay): NCI-60 cell line screen, 48 h

In the case of `Fc1ccc2[nH]cc(-c3nonc3-c3c[nH]c4ccc(Br)cc34)c2c1`, the GI50 in the experiment on HCC-2998 colon is 1.89 µM; in the experiment with MDA-MB-231 breast, 1.3 µM; in the experiment on NCI-H23 lung it was 1.95 µM; in the experiment on NCI-H460 lung it was 2.07 µM; in the experiment on OVCAR-8 ovarian, 3.38 µM; in the experiment with SK-MEL-5 melanoma, 1.88 µM. The GI50 is 4.34 µM in the experiment with SK-OV-3 ovarian, 2.25 µM with SNB-19 CNS and 1.76 µM in the experiment with SW-620 colon. Further, the TGI is 3.83 µM in the experiment on HCC-2998 colon; 2.88 µM in the experiment on MDA-MB-231 breast; 5.86 µM in the experiment with NCI-H23 lung; 4.88 µM with NCI-H460 lung; 17.5 µM with OVCAR-8 ovarian; 4.25 µM in the experiment with SK-MEL-5 melanoma. In addition, the TGI worked out at 22.4 µM in the experiment with SK-OV-3 ovarian, 5.69 µM in the experiment with SNB-19 CNS and 3.84 µM in the experiment with SW-620 colon.
On to `C=C(c1ccc2nc(NC(=O)OC)[nH]c2c1)c1cccs1`, for which the TGI with HCC-2998 colon was 0.86 µM; with MDA-MB-231 breast, > 100 µM; with NCI-H460 lung it was > 100 µM; in the experiment with OVCAR-8 ovarian, > 36.4 µM; with SK-MEL-5 melanoma, > 20.7 µM; in the experiment on SK-OV-3 ovarian, > 45.1 µM. Besides, the TGI in the experiment on SNB-19 CNS and in the experiment on SW-620 colon was > 100 µM throughout.
On to `CC(C)=CCc1c(OC(=O)c2c(C)cc(O)cc2O)cc(CO)c(CO)c1O`, for which the TGI was 31.7 µM with HCC-2998 colon; 48.3 µM in the experiment on MDA-MB-231 breast; 63 µM with MOLT-4 leukemia; 33 µM in the experiment with NCI-H23 lung; 39.2 µM in the experiment with NCI-H460 lung; 63.9 µM in the experiment with OVCAR-8 ovarian. Further, the TGI is 29.1 µM with SK-MEL-5 melanoma, 30.9 µM in the experiment with SK-OV-3 ovarian and 21.2 µM in the experiment on SNB-19 CNS.
Turning to `Cc1ccc(S(=O)(=O)NC(=O)C2C(=O)CC3(CCCCC3)CC2=O)cc1`, the TGI was > 100 µM with MDA-MB-231 breast; > 100 µM in the experiment with MOLT-4 leukemia; > 100 µM with NCI-H23 lung; 74.9 µM in the experiment on NCI-H460 lung; 87.1 µM with OVCAR-8 ovarian; 67 µM in the experiment on SK-MEL-5 melanoma. Also, the TGI in the experiment on SK-OV-3 ovarian was > 100 µM; with SNB-19 CNS, > 100 µM; in the experiment with SW-620 colon, 84.7 µM.
On to `CCOC(=O)N1CCN(c2nc(Nc3cc(C)[nH]n3)c3ccccc3n2)CC1`, for which the GI50 was 11.7 µM in the experiment with HCC-2998 colon; 4.97 µM with MDA-MB-231 breast; 15.5 µM in the experiment with MOLT-4 leukemia; 4.42 µM in the experiment with NCI-H460 lung; 8.63 µM in the experiment on OVCAR-8 ovarian; 7.94 µM with SK-MEL-5 melanoma. The figures for the GI50 in the experiment with SK-OV-3 ovarian, in the experiment with SNB-19 CNS and in the experiment with SW-620 colon were 2.62 µM, 10.3 µM and 2.1 µM, respectively. Further, the TGI with HCC-2998 colon was found to be 48.7 µM; in the experiment with MDA-MB-231 breast, 81.6 µM; with MOLT-4 leukemia it was 42.7 µM; in the experiment on NCI-H460 lung, 26.4 µM; in the experiment with OVCAR-8 ovarian, 63.2 µM; in the experiment with SK-MEL-5 melanoma it was 21.4 µM. For the same compound, the TGI in the experiment on SK-OV-3 ovarian was 34.3 µM; in the experiment on SNB-19 CNS it was > 100 µM; in the experiment on SW-620 colon it was 45.2 µM.
Consider `COc1cccc(-c2cc(=O)c3cc(OC)ccc3[nH]2)c1`, for which the GI50 with HCC-2998 colon was 0.118 µM; in the experiment on MOLT-4 leukemia, 0.0411 µM; in the experiment on NCI-H23 lung it was 0.358 µM; in the experiment with NCI-H460 lung, 0.0823 µM; in the experiment on OVCAR-8 ovarian, 0.79 µM; with SW-620 colon, 0.0445 µM. Also, the TGI with HCC-2998 colon is 2.59 µM and 0.443 µM; with MDA-MB-231 breast, 4.53 µM and 21.6 µM; in the experiment on NCI-H460 lung it was > 100 µM; in the experiment on SK-MEL-5 melanoma it was 2.57 µM; in the experiment with SK-OV-3 ovarian it was 41.5 µM; in the experiment on SW-620 colon, > 100 µM.
For `COc1ccc2c(c1)C(=O)c1c-2n(CCCN=[N+]=[N-])c(=O)c2cc(OC)c(OC)cc12`, the GI50 in the experiment on HCC-2998 colon is 13.7 µM; in the experiment on MDA-MB-231 breast, > 100 µM; with MOLT-4 leukemia, 10.6 µM; in the experiment on NCI-H460 lung it was 7.99 µM; with OVCAR-8 ovarian it was > 100 µM; in the experiment with SK-MEL-5 melanoma, > 100 µM. For the same compound, the values for the GI50 in the experiment with SK-OV-3 ovarian, in the experiment on SNB-19 CNS and with SW-620 colon were 41.6 µM, 47 µM and > 100 µM, respectively. The TGI was > 100 µM with HCC-2998 colon; > 100 µM in the experiment on MDA-MB-231 breast; 23.5 µM in the experiment on MOLT-4 leukemia; > 100 µM in the experiment on NCI-H460 lung; > 100 µM in the experiment on OVCAR-8 ovarian; > 100 µM in the experiment on SK-MEL-5 melanoma. The TGI in the experiment on SK-OV-3 ovarian, with SNB-19 CNS and in the experiment on SW-620 colon was > 100 µM each time.
With `CC(C(=O)c1ccccc1)C(c1ccccc1)N1CCOCC1` (stereo unspecified), the TGI in the experiment with MDA-MB-231 breast, in the experiment on MOLT-4 leukemia, with NCI-H23 lung, in the experiment on NCI-H460 lung, with OVCAR-8 ovarian and in the experiment with SK-MEL-5 melanoma was > 100 µM in each case. The TGI in the experiment with SK-OV-3 ovarian, with SNB-19 CNS and in the experiment on SW-620 colon was > 100 µM throughout.
Take `COc1cc(OC)cc(N(CCNC(C)C)c2ccc3ncc(-c4cnn(C)c4)nc3c2)c1`: the GI50 with HCC-2998 colon is 11.2 µM; in the experiment with MDA-MB-231 breast it was 4.63 µM; in the experiment on MOLT-4 leukemia, 2.99 µM; with NCI-H23 lung it was 6.9 µM; with NCI-H460 lung, 5.25 µM; in the experiment on OVCAR-8 ovarian it was 4.75 µM. Also, the values for the GI50 with SK-OV-3 ovarian, in the experiment with SNB-19 CNS and in the experiment with SW-620 colon were 1.99 µM, 10.9 µM and 6.38 µM, respectively. In addition, the TGI is 24.9 µM in the experiment on HCC-2998 colon; 18.4 µM with MDA-MB-231 breast; 12 µM in the experiment on MOLT-4 leukemia; 20.9 µM in the experiment on NCI-H23 lung; 18.1 µM in the experiment with NCI-H460 lung; 18.9 µM in the experiment with OVCAR-8 ovarian. Also, the TGI in the experiment on SK-OV-3 ovarian was 6 µM; in the experiment on SNB-19 CNS, 24.9 µM; with SW-620 colon, 20.4 µM.
For the compound `CCCCCC(=O)C(C)C1=Nc2nnc(CCCCCCCc3nnc4n3C(=O)C(C(C)C(=O)CCCCC)=N4)n2C1=O` (stereo unspecified), the TGI with HCC-2998 colon, with MOLT-4 leukemia, in the experiment with NCI-H23 lung, with NCI-H460 lung, in the experiment with OVCAR-8 ovarian and in the experiment with SK-MEL-5 melanoma was > 100 µM throughout. Besides, the TGI in the experiment with SK-OV-3 ovarian, in the experiment with SNB-19 CNS and with SW-620 colon was > 100 µM throughout.
Turning to `Cc1cc(=O)oc2cc(OC(=O)N(C)C)c(Cl)cc12`, the TGI in the experiment on HCC-2998 colon, with MDA-MB-231 breast, with MOLT-4 leukemia, in the experiment with NCI-H23 lung, with NCI-H460 lung and in the experiment with OVCAR-8 ovarian was > 100 µM in each case. Besides, the TGI in the experiment on SK-MEL-5 melanoma, in the experiment with SNB-19 CNS and with SW-620 colon was > 100 µM throughout.
For `CC1CCC2(CC1)NN=c1s/c(=C\c3ccc(O)cc3)c(=O)n1N2` (stereo unspecified), the TGI with HCC-2998 colon, in the experiment on MOLT-4 leukemia, in the experiment with NCI-H23 lung, in the experiment on NCI-H460 lung, in the experiment on OVCAR-8 ovarian and in the experiment with SK-MEL-5 melanoma was > 100 µM in each case. For the same compound, the TGI with SK-OV-3 ovarian, in the experiment with SNB-19 CNS and with SW-620 colon was > 100 µM throughout.
